# Experimental data taken from PubChem BioAssay (NCI).
#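 GI50 is the concentration that inhibits growth by half. The concentration for full growth arrest is given as TGI.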
# Tests used:
# Experiment in all cases: NCI tumour cell line growth inhibition, 384-well format
# 786-0 renal = tested on: 786-0 renal
# A498 renal = tested on: A498 renal
# A549 NSCLC = tested on: A549 NSCLC
# ACHN renal = tested on: ACHN renal
# BT-549 breast = tested on: BT-549 breast
# CAKI-1 renal = tested on: CAKI-1 renal
# CCRF-CEM leukemia = tested on: CCRF-CEM leukemia
# COLO 205 colon = tested on: COLO 205 colon
# DU-145 prostate = tested on: DU-145 prostate
# EKVX NSCLC = tested on: EKVX NSCLC
# HCC-2998 colon = tested on: HCC-2998 colon
# HCT-116 colon = tested on: HCT-116 colon
# HCT-15 colon = tested on: HCT-15 colon
# HL-60(TB) leukemia = tested on: HL-60(TB) leukemia
# HOP-62 NSCLC = tested on: HOP-62 NSCLC
# HOP-92 NSCLC = tested on: HOP-92 NSCLC
# HS 578T breast = tested on: HS 578T breast
# HT29 colon = tested on: HT29 colon
# IGROV1 ovarian = tested on: IGROV1 ovarian
# K-562 leukemia = tested on: K-562 leukemia
# KM12 colon = tested on: KM12 colon
# LOX IMVI melanoma = tested on: LOX IMVI melanoma
# M14 melanoma = tested on: M14 melanoma
# MALME-3M melanoma = tested on: MALME-3M melanoma
# MCF7 breast = tested on: MCF7 breast
# MDA-MB-231 breast = tested on: MDA-MB-231 breast
# MDA-MB-435 melanoma = tested on: MDA-MB-435 melanoma
# MDA-MB-468 breast = tested on: MDA-MB-468 breast
# MOLT-4 leukemia = tested on: MOLT-4 leukemia
# NCI-H226 lung = tested on: NCI-H226 lung
compound,measurement,setting,value
Cc1c(C(=O)Nc2ccc(Oc3ccnc4cc(OCC(C)(C)O)ccc34)c(F)c2)c(=O)n(-c2ccccc2)n1C,GI50,786-0 renal,5.8 µM
same,TGI,786-0 renal,96.9 µM
same,GI50,A498 renal,3.58 µM
same,TGI,A498 renal,> 37.7 µM
same,GI50,A549 NSCLC,4.26 µM
same,TGI,A549 NSCLC,> 100 µM
same,GI50,ACHN renal,3.39 µM
same,TGI,ACHN renal,> 100 µM
same,GI50,BT-549 breast,> 23.7 µM
same,TGI,BT-549 breast,> 65.3 µM
same,GI50,CAKI-1 renal,0.963 µM
same,TGI,CAKI-1 renal,> 39 µM
same,GI50,CCRF-CEM leukemia,2.61 µM
same,TGI,CCRF-CEM leukemia,7.97 µM
same,GI50,COLO 205 colon,2.26 µM
same,TGI,COLO 205 colon,6.93 µM
same,GI50,DU-145 prostate,6.27 µM
same,TGI,DU-145 prostate,> 100 µM
same,GI50,EKVX NSCLC,2.61 µM
same,TGI,EKVX NSCLC,8.53 µM
same,GI50,HCC-2998 colon,> 31.1 µM
same,TGI,HCC-2998 colon,> 100 µM
same,GI50,HCT-116 colon,3.97 µM
same,TGI,HCT-116 colon,> 100 µM
same,GI50,HCT-15 colon,4.13 µM
same,TGI,HCT-15 colon,> 69.6 µM
same,GI50,HL-60(TB) leukemia,3.5 µM
same,TGI,HL-60(TB) leukemia,6.78 µM
same,GI50,HOP-62 NSCLC,2.34 µM
same,TGI,HOP-62 NSCLC,> 22.5 µM
same,GI50,HOP-92 NSCLC,2.36 µM
same,TGI,HOP-92 NSCLC,> 25.8 µM
same,GI50,HS 578T breast,1.86 µM
same,TGI,HS 578T breast,4.85 µM
same,GI50,HT29 colon,2.55 µM
same,TGI,HT29 colon,> 100 µM
same,GI50,IGROV1 ovarian,4.3 µM
same,TGI,IGROV1 ovarian,> 100 µM
same,GI50,K-562 leukemia,0.152 µM
same,TGI,K-562 leukemia,0.391 µM
same,GI50,KM12 colon,0.258 µM
same,TGI,KM12 colon,> 100 µM
same,GI50,LOX IMVI melanoma,2.65 µM
same,TGI,LOX IMVI melanoma,> 44 µM
same,GI50,M14 melanoma,2.68 µM
same,TGI,M14 melanoma,> 22.7 µM
same,GI50,MALME-3M melanoma,2.11 µM
same,TGI,MALME-3M melanoma,5.14 µM
same,GI50,MCF7 breast,3.5 µM
same,TGI,MCF7 breast,> 38.9 µM
same,GI50,MDA-MB-231 breast,3.26 µM
same,TGI,MDA-MB-231 breast,> 30.4 µM
same,GI50,MDA-MB-435 melanoma,3.31 µM
same,TGI,MDA-MB-435 melanoma,> 31.4 µM
same,GI50,MDA-MB-468 breast,1.62 µM
same,TGI,MDA-MB-468 breast,4.86 µM
same,GI50,MOLT-4 leukemia,1.46 µM
same,TGI,MOLT-4 leukemia,3.66 µM
same,GI50,NCI-H226 lung,1.93 µM
